Laboratory results reported in patent US9353107B2 (Aurigene Discovery Technologies Limited, priority 2012, dated 2016).
Structures can show the parent of a compound that is named as a salt.

Target: T1, recombinant human ALK enzyme (ALK WT) (Homo sapiens, UniProt Q9UM73)
T1 construct: purchased Carna Biosciences 08-518
Test: ALK WT cell free enzymatic assay (TR-FRET)
Format: biochemical
Conditions: 1 μM ATP; for IC50: 10 point dose response; for inhibition at 0.1 µM: compound at 100 nM; for inhibition at 0.1 µM / inhibition at 1 µM: 30 min pre-incubation; for inhibition at 1 µM: compound at 1 μM
Protocol: ALK Wild Type (WT) The ALK WT cell free assay was set up to evaluate the effects of these compounds as inhibitors of ALK enzyme. The enzymatic assay was standardized using recombinant human ALK enzyme (Cat#08-518) from Carna Biosciences using Ultra Light Poly GT (Cat# TRF 0100D) from Perkin Elmer as a substrate. TR-FRET (Time resolved fluorescence resonance energy transfer) detection technology was used for the read out. The final assay conditions were 50 mM HEPES pH 7.1, 10 mM MgCl2, 2 mM MnCl2, 0.01% BSA, 2.5 mM DTT, 0.1 mM Na3 VO4, 40 nM Ultra Light Poly GT, 2.5 ng ALK WT enzyme, 1 μM ATP and 125 nM Lance Eu-W1024 labeled anti phospho tyrosine antibody (Cat# AD0203, Perkin Elmer) in 384 well format. The assay reaction time with the substrate was 30 minutes after which the antibody detection mix is added. The TR-FRET signal (Excitation at 340 nm, Emission at 615 nm and 665 nm) was read with 50 μs delay time on Victor^3 V fluorimeter. The data is calculated using the ratio of reading at 665 nM to 615 nM. The final concentration of DMSO was 1% in the assay. Compounds were screened at 100 nM and 1 μM concentrations with pre-incubation of the enzymes with compound for 30 minutes. Each individual IC50 was determined using 10 point dose response curve generated by GraphPad Prism software Version 4 (San Diego, Calif., USA) using non linear regression curve fit for sigmoidal dose response (variable slope). Percentage inhibition at concentrations of 100 nM and 1.0 μM are given in table along with the IC50 (nM) details for selected examples.

T1 sequence (Q9UM73 1058-1620 limits assumed): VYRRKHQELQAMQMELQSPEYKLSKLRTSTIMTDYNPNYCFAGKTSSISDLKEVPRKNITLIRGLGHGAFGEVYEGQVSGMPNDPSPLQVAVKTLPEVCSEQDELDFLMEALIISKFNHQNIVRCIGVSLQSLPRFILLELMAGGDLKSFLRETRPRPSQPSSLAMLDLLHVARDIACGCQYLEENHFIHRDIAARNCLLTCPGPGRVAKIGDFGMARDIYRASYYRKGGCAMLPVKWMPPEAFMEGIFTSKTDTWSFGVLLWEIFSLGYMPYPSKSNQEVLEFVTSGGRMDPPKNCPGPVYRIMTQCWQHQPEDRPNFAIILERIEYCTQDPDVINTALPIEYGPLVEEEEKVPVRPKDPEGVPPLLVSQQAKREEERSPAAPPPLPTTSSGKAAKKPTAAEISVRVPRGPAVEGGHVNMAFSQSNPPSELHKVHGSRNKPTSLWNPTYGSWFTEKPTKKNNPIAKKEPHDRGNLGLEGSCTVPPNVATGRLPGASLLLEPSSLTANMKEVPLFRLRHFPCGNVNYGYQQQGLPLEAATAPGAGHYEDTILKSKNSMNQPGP

IC50 [nM] | inhibition at 0.1 µM [%] | inhibition at 1 µM [%] | SMILES
< 50 | 70 | 91 | CC(=O)N1CCN(c2ccc(-c3cnc4[nH]cc(-c5c(C)nn(Cc6cccc(F)c6)c5C)c4c3)cc2)CC1 [Example 49, 1-(4-(4-(3-(1-(3-fluorobenzyl)-3,5-dimethyl-1H-pyrazol-4-yl)-1H-pyrrolo[2,3-b]pyridin-5-yl)phenyl)piperazin-1-yl)ethanone]
< 50 | 60 | 89 | CC(=O)Nc1cccc(Cn2nc(C)c(-c3c[nH]c4ncc(-c5ccc(N6CCNCC6)cc5)cc34)c2C)c1 [Example 50, N-(3-((3,5-dimethyl-4-(5-(4-(piperazin-1-yl)phenyl)-1H-pyrrolo[2,3-b]pyridin-3-yl)-1H-pyrazol-1-yl)methyl)phenyl)acetamide]
< 50 | 84 | 100 | Cc1cccc(Cn2nc(C)c(-c3c[nH]c4ncc(-c5ccc(N6CCNCC6)cc5)cc34)c2C)c1 [Example 51, 3-(3,5-dimethyl-1-(3-methylbenzyl)-1H-pyrazol-4-yl)-5-(4-(piperazin-1-yl)phenyl)-1H-pyrrolo[2,3-b]pyridine hydrochloride]
> 250 | 12 | 80 | Cc1nn(Cc2cccc(OC(F)(F)F)c2)c(C)c1-c1c[nH]c2ncc(-c3ccc(N4CCNCC4)cc3)cc12 [Example 52, 3-(3,5-dimethyl-1-(3-(trifluoromethoxy)benzyl)-1H-pyrazol-4-yl)-5-(4-(piperazin-1-yl)phenyl)-1H-pyrrolo[2,3-b]pyridine hydrochloride]
 | 0 | 25 | CCOc1cccc(Cn2nc(C)c(-c3c[nH]c4ncc(-c5ccc(N6CCNCC6)cc5)cc34)c2C)c1 [Example 54, 3-(1-(3-ethoxybenzyl)-3,5-dimethyl-1H-pyrazol-4-yl)-5-(4-(piperazin-1-yl)phenyl)-1H-pyrrolo[2,3-b]pyridine hydrochloride]
 | 2 | 43 | Cc1nn(Cc2cccc(F)c2)c(C)c1-c1c[nH]c2nc(C3CC3)c(-c3ccc(N4CCNCC4)cc3)cc12 [Example 55, 6-cyclopropyl-3-(1-(3-fluorobenzyl)-3,5-dimethyl-1H-pyrazol-4-yl)-5-(4-(piperazin-1-yl)phenyl)-1H-pyrrolo[2,3-b]pyridine hydrochloride]
< 50 | 91 | 100 | Cc1nn(Cc2cccc(F)c2)c(C)c1-c1c[nH]c2ncc(-c3ccc(N4CCN(C)CC4)cc3)cc12 [Example 56, 3-(1-(3-fluorobenzyl)-3,5-dimethyl-1H-pyrazol-4-yl)-5-(4-(4-methylpiperazin-1-yl)phenyl)-1H pyrrolo[2,3-b]pyridine]
< 50 | 93 | 100 | Cc1nn(Cc2cccc(F)c2)c(C)c1-c1c[nH]c2ncc(-c3ccc(N4CCN(CCN(C)C)CC4)cc3)cc12 [Example 57, 2-(4-(4-(3-(1-(3-fluorobenzyl)-3,5-dimethyl-1H-pyrazol-4-yl)-1H-pyrrolo[2,3-b]pyridin-5-yl)phenyl)piperazin-1-yl)-N,N-dimethylethanamine]
< 50 | 92 | 100 | Cc1nn(Cc2cccc(F)c2)c(C)c1-c1c[nH]c2ncc(-c3ccc(N4CCNCC4)c(NS(C)(=O)=O)c3)cc12 [Example 58, N-(5-(3-(1-(3-fluorobenzyl)-3,5-dimethyl-1H-pyrazol-4-yl)-1H-pyrrolo[2,3-b]pyridin-5-yl)-2-(piperazin-1-yl)phenyl)methanesulfonamide hydrochloride]
50 to 250 | 49 | 77 | Cc1nn(Cc2cccc(F)c2)c(C)c1-c1c[nH]c2ncc(-c3ccc(N4CCOCC4)c(NS(C)(=O)=O)c3)cc12 [Example 59, N-(5-(3-(1-(3-fluorobenzyl)-3,5-dimethyl-1H-pyrazol-4-yl)-1H-pyrrolo[2,3-b]pyridin-5-yl)-2-morpholinophenyl)methanesulfonamide]
 | 9 | 10 | Cc1nn(Cc2cc(F)cc(F)c2)c(C)c1-c1c[nH]c2nc(C3CC3)c(-c3ccc(N4CCNCC4)cc3)cc12 [Example 60, 6-cyclopropyl-3-(1-(3,5-difluorobenzyl)-3,5-dimethyl-1H-pyrazol-4-yl)-5-(4-(piperazin-1-yl)phenyl)-1H-pyrrolo[2,3-b]pyridine hydrochloride]
< 50 | 73 | 96 | COc1cc(N2CCNCC2)ccc1-c1cnc2[nH]cc(-c3c(C)nn(Cc4cccc(F)c4)c3C)c2c1 [Example 61, 3-(1-(3-fluorobenzyl)-3,5-dimethyl-1H-pyrazol-4-yl)-5-(2-methoxy-4-(piperazin-1-yl)phenyl)-1H-pyrrolo[2,3-b]pyridine hydrochloride]
< 50 | 87 | 100 | COc1cc(-c2cnc3[nH]cc(-c4c(C)nn(Cc5cccc(F)c5)c4C)c3c2)ccc1N1CCNCC1 [Example 62, 3-(1-(3-fluorobenzyl)-3,5-dimethyl-1H-pyrazol-4-yl)-5-(3-methoxy-4-(piperazin-1-yl)phenyl)-1H-pyrrolo[2,3-b]pyridine hydrochloride]
 | 15 | 48 | Cc1nn(Cc2cccc(F)c2)c(C)c1-c1c(C2CC2)[nH]c2ncc(-c3ccc(N4CCNCC4)cc3)cc12 [Example 63, 2-cyclopropyl-3-(1-(3-fluorobenzyl)-3,5-dimethyl-1H-pyrazol-4-yl)-5-(4-(piperazin-1-yl)phenyl)-1H-pyrrolo[2,3-b]pyridine]
< 50 | 59 | 82 | COc1ccc(-c2cnc3[nH]cc(-c4cnn(CCc5ccccc5)c4)c3c2)cc1NS(C)(=O)=O [Example 64, N-(2-methoxy-5-(3-(1-phenethyl-1H-pyrazol-4-yl)-1H-pyrrolo[2,3-b]pyridin-5-yl)phenyl) methanesulfonamide]
< 50 | 97 | 100 | COc1ncc(-c2cnc3[nH]cc(-c4cnn(Cc5cccc(F)c5)c4)c3c2)cc1N [Example 65, 5-(3-(1-(3-fluorobenzyl)-1H-pyrazol-4-yl)-1H-pyrrolo[2,3-b]pyridin-5-yl)-2-methoxypyridin-3-amine]
 | 38 | 95 | Cc1nn(Cc2cccc(F)c2)c(C)c1-c1c[nH]c2ncc(-c3cnc(O)c(NS(C)(=O)=O)c3)cc12 [Example 66, N-(5-(3-(1-(3-fluorobenzyl)-3,5-dimethyl-1H-pyrazol-4-yl)-1H-pyrrolo[2,3-b]pyridin-5-yl)-2-hydroxypyridin-3-yl)methanesulfonamide]
< 50 | 98 | 100 | COc1ncc(-c2cnc3[nH]cc(-c4cnn(Cc5cccc(F)c5)c4)c3c2)cc1NS(C)(=O)=O [Example 67, N-(5-(3-(1-(3-fluorobenzyl)-1H-pyrazol-4-yl)-1H-pyrrolo[2,3-b]pyridin-5-yl)-2-methoxypyridin-3-yl)methanesulfonamide]
 | 70 | 93 | COc1cc(-c2cnc3[nH]cc(-c4cnn(Cc5cccc(F)c5)c4)c3c2)ccc1NS(C)(=O)=O [Example 68, N-(4-(3-(1-(3-fluorobenzyl)-1H-pyrazol-4-yl)-1H-pyrrolo[2,3-b]pyridin-5-yl)-2-methoxyphenyl) methanesulfonamide]
 | 15 | 76 | COc1ccc(-c2cnc3[nH]cc(-c4ccn(Cc5cc(F)cc(F)c5)n4)c3c2)cc1NS(C)(=O)=O [Example 69, N-(5-(3-(1-(3,5-difluorobenzyl)-1H-pyrazol-3-yl)-1H-pyrrolo[2,3-b]pyridin-5-yl)-2-methoxyphenyl)methanesulfonamide]
< 50 | 91 | 99 | COc1ccc(-c2cnc3[nH]cc(-c4cnn(Cc5cc(F)ccc5F)c4)c3c2)cc1NS(C)(=O)=O [Example 70, N-(5-(3-(1-(2,5-difluorobenzyl)-1H-pyrazol-4-yl)-1H-pyrrolo[2,3-b]pyridin-5-yl)-2-methoxyphenyl)methanesulfonamide]
< 50 | 94 | 100 | COc1ccc(-c2cnc3[nH]cc(-c4cnn(Cc5cc(F)cc(F)c5)c4)c3c2)cc1NS(C)(=O)=O [Example 71, N-(5-(3-(1-(3,5-difluorobenzyl)-1H-pyrazol-4-yl)-1H-pyrrolo[2,3-b]pyridin-5-yl)-2-methoxyphenyl)methanesulfonamide]
50 to 250 | 76 | 100 | COc1ccc(-c2cnc3[nH]cc(-c4cnn(Cc5cccnc5)c4)c3c2)cc1NS(C)(=O)=O [Example 72, N-(2-methoxy-5-(3-(1-(pyridin-3-ylmethyl)-1H-pyrazol-4-yl)-1H-pyrrolo[2,3-b]pyridin-5-yl)phenyl)methanesulfonamide]
